Assay results: article PMC6435570, “Zafirlukast Is a Dual Modulator of Human Soluble Epoxide Hydrolase and Peroxisome Proliferator-Activated Receptor γ” (Frontiers in Pharmacology, 2019)
Where “and” joins values, the source holds several entries; their conditions need not be identical. Equal values may be shown once. Entries after “also recorded” stand apart in the source; their conditions may differ.

Tests used:
[1] = target: T1, human PPARγ ligand binding domain (Homo sapiens, UniProt P37231); assay: PPAR reporter gene assay (Gal4 hybrid, PPARγ); settings: for Emax: read-out: PPARγ maximal activation, HEK-293T, relative to pioglitazone (1 μM)
T1 sequence (P37231 238-503 limits assumed): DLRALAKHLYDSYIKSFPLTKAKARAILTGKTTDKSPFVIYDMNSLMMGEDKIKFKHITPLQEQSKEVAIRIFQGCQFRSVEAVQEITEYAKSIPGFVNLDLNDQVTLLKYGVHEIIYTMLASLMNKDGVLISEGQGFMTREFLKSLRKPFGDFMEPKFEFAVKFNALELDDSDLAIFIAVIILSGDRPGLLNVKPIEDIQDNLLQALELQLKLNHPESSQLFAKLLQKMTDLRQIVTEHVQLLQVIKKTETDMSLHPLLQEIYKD
Experimental: HEK-293T cells were seeded in 96-well plates (2.5 × 10^4 cells/well) and were allowed to adhere overnight. Before transfection, medium was changed to Opti-MEM without supplements. Transient plasmid transfection was carried out using Lipofectamine LTX reagent (Invitrogen, Carlsbad, CA, United States) according to the manufacturer’s protocol with pFR-Luc (Stratagene, La Jolla, CA, United States), pRL-SV40 (Promega, Fitchburg, MA, United States) and pFA-CMV-PPAR-LBD ([Rau et al., 2006]). 5 h after transfection, medium was changed to Opti-MEM supplemented with penicillin (100 U/mL) and streptomycin (100 μg/mL), now additionally containing 0.1% DMSO and the respective test compound or 0.1% DMSO alone as untreated control. Each concentration was tested in triplicates and each experiment was repeated independently at least four times. Following overnight (12–16 h) incubation with the test compounds, cells were assayed for luciferase activity using the Dual-Glo^TM Luciferase Assay System (Promega, Fitchburg, MA, United States) according to the manufacturer’s protocol. Luminescence was measured with an Infinite M200 luminometer (Tecan Group Ltd., Männedorf, Switzerland). Normalization of transfection efficiency and cell growth was done by division of firefly luciferase data by renilla luciferase data and multiplying the value by 1000 resulting in relative light units (RLU). Fold activation was obtained by dividing the mean RLU of a test compound at a respective concentration by the mean RLU of untreated control. Relative activation was obtained by dividing the fold activation of a test compound at a respective concentration by the fold activation of the respective PPARα, γ or δ full agonist GW-7647, pioglitazone or L165,041 at 1 μM. EC50 and standard deviation were calculated with the mean relative activation values of at least four independent experiments by SigmaPlot 10.0 (Systat Software GmbH, Erkrath, Germany) using a four parameter logistic regression.
For this, a hybrid receptor construct containing the respective human PPAR ligand binding domain and hinge region fused to the DNA binding domain of the yeast nuclear receptor Gal4 and a Gal4-responsive firefly luciferase construct were co-transfected into HEK-293T cells together with a plasmid constitutively expressing Renilla luciferase for normalization of transfection efficiency and cell growth. Activation of the PPAR isoforms was compared to 1 μM of the well characterized agonists GW7647, L165,041, and pioglitazone for PPARα, δ, and γ, respectively.

sEH (HEP-G2) = target: T2, sEH (HEP-G2) (Homo sapiens, UniProt P34913); assay: sEH activity in HEP-G2 cell lysates (14(15)-EET-d11 to DHET-d11, LC-MS/MS); format: biochemical; settings: HEP-G2 cell homogenate, (±)14(15)-EET-d11 substrate, DHET formation by LC-MS/MS
T2 construct: 1 μg of total cell homogenate diluted in 100 μl of PBS; endogenous in cells; host or cells: HEP-G2
T2 sequence (P34913 1-555): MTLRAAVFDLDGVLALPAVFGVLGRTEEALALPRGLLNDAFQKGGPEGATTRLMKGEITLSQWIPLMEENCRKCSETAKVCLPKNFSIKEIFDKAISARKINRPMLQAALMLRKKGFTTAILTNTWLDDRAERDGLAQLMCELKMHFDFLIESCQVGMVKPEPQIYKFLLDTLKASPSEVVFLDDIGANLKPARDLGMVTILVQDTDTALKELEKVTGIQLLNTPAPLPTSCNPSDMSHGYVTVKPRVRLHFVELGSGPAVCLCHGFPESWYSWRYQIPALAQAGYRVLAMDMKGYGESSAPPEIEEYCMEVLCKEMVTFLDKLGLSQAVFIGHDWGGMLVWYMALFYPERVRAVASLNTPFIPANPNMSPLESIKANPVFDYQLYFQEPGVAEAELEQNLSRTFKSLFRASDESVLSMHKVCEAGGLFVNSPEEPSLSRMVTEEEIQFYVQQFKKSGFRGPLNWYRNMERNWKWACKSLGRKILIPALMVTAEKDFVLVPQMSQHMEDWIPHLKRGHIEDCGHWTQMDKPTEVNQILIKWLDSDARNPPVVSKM
Experimental: Quantification of cellular sEH metabolic activity was performed as described by [Zha et al. (2014)]. For this, HEP-G2 cells were harvested, washed twice with PBS and sonicated in PBS for disruption of cell integrity. Then, 1 μg of total cell homogenate diluted in 100 μl of PBS containing 0.1 mg/ml BSA was incubated with the compounds or vehicle for 15 min at 37°C. After this, 25 ng (±)14(15)-EET-d11 (Cayman Chemical, Ann Arbor, MI, United States) were added per sample and the incubation was continued for additional 10 min at 37°C. A blank was performed using PBS (containing 0,1 mg/mL BSA). The reactions were stopped by adding 100 μL of ice cold methanol. After centrifugation (2000 rpm, 4°C, 5 min), supernatants were analyzed by LC-MS/MS and the amounts of (±)14(15)-EET-d11 and the corresponding (±)14(15)-DHET-d11 were determined.
14(15)-EET-d11 and 14(15)-DHET-d11 content of the extracted samples were analyzed employing liquid chromatography tandem mass spectroscopy (LC-MS/MS). The LC/MS-MS system comprised an API 5500 QTrap (Sciex, Darmstadt, Germany), equipped with a Turbo-V-source operating in negative ESI mode, an Agilent 1200 binary HPLC pump and degasser (Agilent, Waldbronn, Germany) and an HTC Pal autosampler (Chromtech, Idstein, Germany) fitted with a 25 μL LEAP syringe (Axel Semrau GmbH, Sprockhövel, Germany). High purity nitrogen for the mass spectrometer was produced by a NGM 22-LC/MS nitrogen generator (cmc Instruments, Eschborn, Germany). All substances were obtained from Cayman Chemical, Ann Arbor, MI, United States. Stock solutions with 2,500 ng/mL of both analytes were prepared in methanol. Working standards were obtained by further dilution with a concentration range of 0.1–250 ng/mL for 14(15)-EET-d11 and 14(15)-DHET-d11. Sample extraction was performed with liquid–liquid-extraction. Therefore, 150 μL of matrix homogenates were gently mixed with 20 μL of internal standard [14(15)-EET and 14(15)-DHET all with a concentration of 100 ng/ml in methanol], and were extracted twice with 600 μL of ethyl acetate. Samples for standard curve and quality control were prepared similarly, instead of 150 μL of matrix homogenates, 150 μL PBS were added. Further 20 μL methanol, 20 μL working standard and 20 μL internal standard were added. The organic phase was removed at a temperature of 45°C under a gentle stream of nitrogen. The residues were reconstituted with 50 μL of methanol/water/(50:50, v/v), centrifuged for 2 min at 10,000 g and then transferred to glass vials (Macherey-Nagel, Düren, Germany) prior to injection into the LC-MS/MS system. For the chromatographic separation a Gemini NX C18 column and pre-column were used (150 mm × 2 mm i.d., 5 μm particle size and 110 Å pore size from Phenomenex, Aschaffenburg, Germany). A linear gradient was employed at a flow rate of 0.5 mL/min mobile phase with a total run time of 17.5 min. Mobile phase was A water/ammonia (100:0.05, v/v) and B acetonitrile/ammonia (100:0.05, v/v). The gradient started from 85% A to 10% within 12 min. This was held for 1 min at 10% A. Within 0.5 min the mobile phase shifted back to 85% A and was held for 3.5 min to equilibrate the column for the next sample. The injection volume of samples was 20 μL. Quantification was performed with Analyst Software V 1.5.1 (Sciex, Darmstadt, Germany) employing the internal standard method (isotope- dilution mass spectrometry). Ratios of analyte peak area and internal standard area (y-axis) were plotted against concentration (x-axis) and calibration curves were calculated by least square regression with 1/concentration^2 weighting.

CysLT1R = settings: Table 2 comparison column; no method, no reference given; cited from earlier work
[2] = parameters: method as in Brocks et al., 1996; Knorr et al., 2001; Karonen et al., 2012; settings: single oral dose of 20 mg; ref Brocks et al., 1996; Knorr et al., 2001; Karonen et al., 2012; cited from earlier work
[3] = parameters: method as in Brocks et al., 1996; Knorr et al., 2001; Karonen et al., 2012; settings: ref Brocks et al., 1996; Knorr et al., 2001; Karonen et al., 2012; cited from earlier work
[4] = system: PPARγ2 phosphorylation at serine 273; assay: TNFα triggered PPARγ Ser273 phosphorylation in 3T3-L1 adipocytes (Western Blot); format: cell-based, murine; settings: zafirlukast 1 or 10 μM or rosiglitazone 2 μM for 45 min, then TNFα 50 ng/mL 30 min
Experimental: Total 3T3-L1 or HEP-G2 cell lysates were prepared in lysis buffer (20 mM Tris-HCl, pH 7.4, 150 mM NaCl, 2 mM EDTA, 1% Triton X-100, 0.5% NP-40) supplemented with protease and phosphatase inhibitors (PhosSTOP^TM + cOmplete^TM Mini, Roche Diagnostics GmbH, Mannheim, Germany). Protein concentrations were quantified using the Pierce^TM BCA Protein Assay Kit (Thermo Scientific, Waltham, MA, United States). Total protein (30 μg/lane) was separated by SDS-polyacrylamide gel electrophoresis and transferred to nitrocellulose membranes (GE Healthcare Life Sciences, Little Chalfont, United Kingdom). Membranes were blocked with Odyssey blocking reagent (LI-COR Biosciences, Bad Homburg, Germany) for 1 h at room temperature. […] Afterwards, membranes were washed and incubated with fluorescence conjugated secondary antibodies (IRDye, LI-COR Biosciences, Bad Homburg, Germany). […] The density of the immune reactive bands was analyzed using the Image Studio 5.2 software (LI-COR Biosciences, Bad Homburg, Germany).
We induced this post-translational modification by short-term treatment of the differentiated cells with the cytokine TNFα, generating a pro-inflammatory milieu. […] For this, we used an assay system in which the recruitment of the fluorescence-tagged PPARγ coactivator CBP to the PPARγ-LBD was assessed by time-resolved FRET technique in presence and absence of rosiglitazone.

recombinant human sEH = target: T3, recombinant human sEH (Homo sapiens, UniProt P34913); assay: Recombinant sEH activity (PHOME fluorescence assay); format: biochemical; settings: PHOME 50 μM, 30 min preincubation at RT, read-out: sEH rec. IC50
T3 sequence (P34913 1-555): T2 sequence (P34913 1-555)
Experimental: For determination of IC50 values of recombinant human sEH a 96-well fluorescence-based assay system was used as described before ([Blöcher et al., 2016a]). In brief, non-fluorescent PHOME (3 phenylcyano-(6-methoxy-2-naphthalenyl)methyl ester 2-oxiraneacetic acid, Cayman Chemicals, Ann Arbor, MI, United States) was used as substrate, which is hydrolyzed by sEH to the fluorescent 6-methoxynaphthaldehyde ([Rau et al., 2006]). The formation of the fluorescent product was measured (λem = 330 nm, λex = 465 nm) by an Infinite F200 Pro plate reader (Tecan Group Ltd., Männedorf, Switzerland). For that purpose, 2 μg recombinant human sEH in 100 μl bis-Tris buffer (pH 7, 0.1 mg/mL BSA, 0.01% Triton-X 100) was applied per well. This protein solution was then incubated with different concentrations of the test compounds for 30 min at RT. After this, 10 μL of the substrate were added (final concentration 50 μM). The formation of 6-methoxynaphthaldehyde was monitored for 30 min. All concentrations were tested in triplicate wells.

| SMILES | Emax ([1]; HEK-293T) [%] | IC50 (sEH (HEP-G2)) | IC50 (CysLT1R) [nM] | Peak serum level [2] | EC50 [1] [nM] | PPARγ maximal activation ([1]; HEK-293T, relative to pioglitazone (1 μM)) [%] | Plasma protein binding [3] | TNFα induced phosphorylation of PPARγ2 at serine 273 [4] | IC50 (recombinant human sEH) [nM] |
| --- | --- | --- | --- | --- | --- | --- | --- | --- | --- |
| CC(C)(O)c1ccccc1CC[C@@H](SCC1(CC(=O)O)CC1)c1cccc(/C=C/c2ccc3ccc(Cl)cc3n2)c1 [Montelukast, montelukast] | 21.9 | 1900 nM and 1950 nM |  |  |  |  |  |  |  |
| COc1cc(C(=O)NS(=O)(=O)c2ccccc2C)ccc1Cc1cn(C)c2ccc(NC(=O)OC3CCCC3)cc12 [Zafirlukast, zafirlukast] | ~150 | 800 nM and 820 nM | 5 | about 1 μM | 2490 ± 450 | 148 ± 15 | High | inhibited this phosphorylation; also recorded: completely revert this phosphorylation | 1970 ± 80 |
